From US12552790B2, “Positive modulators of the muscarinic acetylcholine receptor M4” (Vanderbilt University, priority 2023, dated 2026)

System: amphetamine-induced hyperlocomotion in male Sprague-Dawley rats
Experiment: Amphetamine-induced hyperlocomotion in rats
Format: in vivo
Settings: 10 mg/kg oral gavage, rat, amphetamine 0.75 mg/kg s.c.
Procedure: Drugs: d-Amphetamine hemisulfate was obtained from Sigma (St. Louis, MO). Salt-correction was used to determine the correct amount of the d-amphetamine hemisulfate form in milligrams to add to sterile water in order to yield a 0.75 mg/mL solution, which would be dosed at 1 mL/kg body weight of each animal. […] The solutions were formulated so that animals were injected with a volume equal to 10 mL/kg body weight for all compounds. The appropriate amount according to the dosage was mixed in 10% Tween 80 (Sigma) in sterile water. The mixtures were then vortexed and stored in a 39° C. sonication bath for 1 hour, until in a solution or microsuspension (depending on dose).
Animals: Male Sprague-Dawley rats weighing 239-300 grams and averaging 265 g (Harlan, Inc., Indianapolis, IN) were used. They were housed in the animal care facility certified by the American Association for the Accreditation of Laboratory Animal Care (AALAC) under a 12-hour light/dark cycle (lights on: 6 a.m.; lights off: 6 p.m.) and had free access to food and water. The animals used in this experiment were food-deprived the evening before experimentation for oral dosing of compound/vehicle. The experimental protocols performed during the light cycle were approved by the Institutional Animals Care and Use Committee of Vanderbilt University and conformed to the guidelines established by the National Research Council Guide for the Care and Use of Laboratory Animals.
Amphetamine-induced Hyperlocomotion: Male Harlan Sprague Dawley rats were habituated in Smart Open Field locomotor activity test chambers (Hamilton-Kinder, San Diego, CA) with 16×16 photo beams to automatically record locomotor activity. […] They were monitored for an additional 30 minutes and then injected subcutaneously with vehicle or 0.75 mg/kg amphetamine. Animals were then monitored for an additional 60 minutes, for a total of 120 minutes. Data were expressed as changes in ambulation defined as total number of beam breaks per 5 minute interval. Terminal brain and plasma samples were collected at the end of the study for pharmacokinetic analysis.
Data Analysis: Behavioral data were analyzed using a two-way ANOVA with main effects of treatment and time. Post hoc analysis was performed using a Dunnett's t-test with all treatment groups compared to the Vehicle/amphetamine group (VAMP) group using GraphPad Prism V.5.04 (GraphPad Software, San Diego, CA). Data were graphed using GraphPad Prism V.5.04 (GraphPad Software, San Diego, CA). A probability of p≤0.05 was taken as the level of statistical significance. In addition, the total number of beam breaks from the amphetamine administration (65 min) to the end of the study (120 min) was calculated and graphed. Percent Reversal was calculated as follows using Microsoft Excel: In each animal, total ambulation from t=65 to t=120 was summed. The mean of each sum was calculated in the VAMP group. Then, for each animal, Percent Reversal was calculated with the following formula: Percent Reversal=100−{[(total ambulation in each animal from t=65 to t=120)/(mean of each sum from t=65 to t=120 in VAMP group)]*100}. The mean Percent Reversal, as well as the standard error, was calculated for each dose group using GraphPad Prism V5.04.

Cc1nnc2sc(C(=O)NCc3ccc(S(=O)(=O)C(F)(F)F)cc3)c(N)c2c1C [VU0467154, reference compound]
percent reversal of amphetamine-induced hyperlocomotion: 56.2%
